From patent US11000033B2, “Ketone or oxime compound, and herbicide” (NISSAN CHEMICAL CORPORATION, priority 2014, dated 2021)

What was measured:
Type in all cases: in vivo
[1] = tested on: Alopecurus myosuroides; experiment: Test Example 4: herbicidal effect by soil treatment (symbol J)
Procedure, shortened: (§1)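 Seeds were sown in sterilized diluvial soil, covered with about 1.5 cm of soil, and the soil surface was sprayed with a water-diluted emulsion of the compound at a predetermined rate. Plants grew in a greenhouse at 25° C. to 30° C.; effects were scored visually 3 weeks after application.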

[2] = tested on: Chenopodium album; experiment: Test Example 5: herbicidal effect by foliage application, plastic box (symbol O); details: 320 g/ha, 3 weeks after application
Procedure, shortened: (§2)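 Emulsion formulation, diluted with water to the intended rate, was applied uniformly to leaves by small sprayer. Recipients were 14-day greenhouse-grown seedlings (25° C. to 30° C.). Assessment followed at 3 weeks.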

[3] = tested on: Scirpus juncoides; experiment: Test Example 2: herbicidal activity, application during weed generation in submerged conditions (symbol B); details: Table 23, grade 0-5 by criteria of Test Example 1
Procedure, shortened: (§3)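 Flooded-soil post-emergence test: emulsion of compound, water-diluted to target rate, applied to paddy water surface at 1–2 leaf stage of mixed-sown weeds (alluvial soil, 4 cm water, 25–30° C. greenhouse); visual rating 3 weeks after application.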

[4] = tested on: Stellaria media; experiment: Test Example 4: herbicidal effect by soil treatment (symbol P)
Procedure, shortened: as §1

[5] = tested on: Echinochloa oryzacola Vasing.; experiment: Test Example 2: herbicidal activity, application during weed generation in submerged conditions (symbol A); details: Table 23, grade 0-5 by criteria of Test Example 1
Procedure, shortened: as §3

[6] = tested on: Lolium multiflorum Lam.; experiment: Test Example 4: herbicidal effect by soil treatment (symbol K)
Procedure, shortened: as §1

[7] = tested on: Echinochloa crus-galli var. crus-galli; experiment: Test Example 3: herbicidal effect by foliage application, Wagner pot (symbol H)
Procedure, shortened: (§4)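 Rating at 3 weeks post-spray, by defined criteria. Treatment: emulsion diluted with water to a predetermined amount, applied evenly to foliage of 14-day-old plants raised in alluvial soil flooded 0.1–0.5 cm deep at 25–30 °C, rice co-sown.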

[8] = tested on: Leptochloa chinensis; experiment: Test Example 3: herbicidal effect by foliage application, Wagner pot (symbol D)
Procedure, shortened: as §4

[9] = tested on: Echinochloa crus-galli var. crus-galli; experiment: Test Example 5: herbicidal effect by foliage application, plastic box (symbol H); details: 3 weeks after application
Procedure, shortened: as §2

[10] = tested on: Alopecurus myosuroides; experiment: Test Example 5: herbicidal effect by foliage application, plastic box (symbol J); details: 3 weeks after application
Procedure, shortened: as §2

[11] = tested on: rice plant; experiment: Test Example 5: effect on crop by foliage application, plastic box (symbol b); details: 3 weeks after application
Procedure, shortened: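 Diluvial soil, sterilized and boxed (21 × 13 × 7 cm), received spot-sown seed covered by about 1.5 cm soil; plants were then greenhouse-grown at 25–30° C.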

[12] = tested on: Digitaria ciliaris; experiment: Test Example 4: herbicidal effect by soil treatment (symbol F)
Procedure, shortened: as §1

[13] = tested on: Amaranthus retroflexus; experiment: Test Example 5: herbicidal effect by foliage application, plastic box (symbol N); details: 3 weeks after application
Procedure, shortened: as §2

[14] = tested on: Veronica persica; experiment: Test Example 4: herbicidal effect by soil treatment (symbol R)
Procedure, shortened: as §1

[15] = tested on: Avena fatua; experiment: Test Example 4: herbicidal effect by soil treatment (symbol I)
Procedure, shortened: as §1

[16] = tested on: Monochoria vaginalis; experiment: Test Example 2: herbicidal activity, application during weed generation in submerged conditions (symbol C); details: Table 23, grade 0-5 by criteria of Test Example 1
Procedure, shortened: as §3

[17] = tested on: Stellaria media; experiment: Test Example 5: herbicidal effect by foliage application, plastic box (symbol P); details: 3 weeks after application
Procedure, shortened: as §2

[18] = tested on: rice; experiment: Test Example 4: effect on crop by soil treatment (symbol b)
Procedure, shortened: (§5)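 Crop seed is sown in spots together with several weed species in a box of sterilized diluvial soil. It is covered by about 1.5 cm of soil and kept in a greenhouse held between 25° C. and 30° C.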

[19] = tested on: wheat; experiment: Test Example 4: effect on crop by soil treatment (symbol e)
Procedure, shortened: as §5

[20] = tested on: Setaria viridis; experiment: Test Example 4: herbicidal effect by soil treatment (symbol G)
Procedure, shortened: as §1

[21] = application herbicide amount 320 g/ha
[22] = application herbicide amount 320 g/ha, Table 24
[23] = application herbicide amount 192 g/ha

Question: How did the “J: Alopecurus myosuroides, herbicidal effect grade” value [1, 21] turn out when `CCC(CC1CC(O)=C(c2c(C)cc(Br)cc2OC)C1=O)=NOC` (mixture of isomers) [13-001] was run?
Answer: 4 (Herbicidal ratio of 70% or higher and lower than 90%)

Question: And the “O: Chenopodium album, herbicidal effect grade” value [2]?
Answer: 0 (Herbicidal ratio of 5% or lower (almost no effect))

Question: And the “Herbicidal effect grade, B: Scirpus juncoides” value [3, 21]?
Answer: 0 (Herbicidal ratio of 5% or lower (almost no effect))

Question: And the “P: Stellaria media, herbicidal effect grade” value [4, 21]?
Answer: 0 (Herbicidal ratio of 5% or lower (almost no effect))

Question: What about the “Herbicidal effect grade, A: Echinochloa oryzacola Vasing.” value [5, 21] of the same molecule?
Answer: 5 (Herbicidal ratio of 90% or more (almost completely withered))

Question: And the “K: Lolium multiflorum Lam., herbicidal effect grade” value [6, 21]?
Answer: 5 (Herbicidal ratio of 90% or more (almost completely withered))

Question: What about the “H (Echinochloa crus-galli var. crus-galli) herbicidal effect grade” value [7, 22] of the same molecule?
Answer: 5 (Herbicidal ratio of 90% or more (almost completely withered))

Question: And the “D (Leptochloa chinensis) herbicidal effect grade” value [8, 22]?
Answer: 5 (Herbicidal ratio of 90% or more (almost completely withered))

Question: What about the “H: Echinochloa crus-galli var. crus-galli, herbicidal effect grade” value ([9]; 320 g/ha) of the same molecule?
Answer: 5 (Herbicidal ratio of 90% or more (almost completely withered))

Question: And the “J: Alopecurus myosuroides, herbicidal effect grade” value ([10]; 320 g/ha)?
Answer: 5 (Herbicidal ratio of 90% or more (almost completely withered))

Question: What about the “b: directly sowed rice plant, effect on crop grade” value ([11]; 320 g/ha) of the same molecule?
Answer: 5 (Herbicidal ratio of 90% or more (almost completely withered))

Question: And the “F: Digitaria ciliaris, herbicidal effect grade” value [12, 21]?
Answer: 5 (Herbicidal ratio of 90% or more (almost completely withered))

Question: And the “N: Amaranthus retroflexus, herbicidal effect grade” value ([13]; 320 g/ha)?
Answer: 0 (Herbicidal ratio of 5% or lower (almost no effect))

Question: And the “R: Veronica persica, herbicidal effect grade” value [14, 21]?
Answer: 0 (Herbicidal ratio of 5% or lower (almost no effect))

Question: What about the “I: Avena fatua, herbicidal effect grade” value [15, 21] of the same molecule?
Answer: 2 (Herbicidal ratio of 20% or higher and lower than 40%)

Question: And the “Herbicidal effect grade, C: Monochoria vaginalis” value [16, 21]?
Answer: 0 (Herbicidal ratio of 5% or lower (almost no effect))

Question: What about the “P: Stellaria media, herbicidal effect grade” value ([17]; 320 g/ha) of the same molecule?
Answer: 0 (Herbicidal ratio of 5% or lower (almost no effect))

Question: And the “b: directly sowed rice plant, effect on crop grade” value [18, 21]?
Answer: 5 (Herbicidal ratio of 90% or more (almost completely withered))

Question: And the “e: wheat, effect on crop grade” value [19, 21]?
Answer: 0 (Herbicidal ratio of 5% or lower (almost no effect))

Question: For `CON=C(C)CC1CC(OC(=O)C2CCCO2)=C(c2c(C)cc(C)cc2C)C1=O` (stereo not drawn) [1-076], which “J: Alopecurus myosuroides, herbicidal effect grade” value ([1]; 192 g/ha) is on record?
Answer: 4 (Herbicidal ratio of 70% or higher and lower than 90%)

Question: What about the “Herbicidal effect grade, B: Scirpus juncoides” value [3, 23] of the same molecule?
Answer: 4 (Herbicidal ratio of 70% or higher and lower than 90%)

Question: And the “P: Stellaria media, herbicidal effect grade” value ([4]; 192 g/ha)?
Answer: 0 (Herbicidal ratio of 5% or lower (almost no effect))

Question: And the “Herbicidal effect grade, A: Echinochloa oryzacola Vasing.” value [5, 23]?
Answer: 5 (Herbicidal ratio of 90% or more (almost completely withered))

Question: What about the “K: Lolium multiflorum Lam., herbicidal effect grade” value ([6]; 192 g/ha) of the same molecule?
Answer: 5 (Herbicidal ratio of 90% or more (almost completely withered))

Question: And the “herbicidal effect on H (Echinochloa crus-galli var. crus-galli), grade 0-5” value [7, 23]?
Answer: 5 (Herbicidal ratio of 90% or more (almost completely withered))

Question: And the “G: Setaria viridis, herbicidal effect grade” value ([20]; 192 g/ha)?
Answer: 5 (Herbicidal ratio of 90% or more (almost completely withered))

Question: What about the “herbicidal effect on D (Leptochloa chinensis), grade 0-5” value [8, 23] of the same molecule?
Answer: 5 (Herbicidal ratio of 90% or more (almost completely withered))

Question: What about the “H: Echinochloa crus-galli var. crus-galli, herbicidal effect (criteria 0-5)” value ([9]; 192 g/ha) of the same molecule?
Answer: 5 (Herbicidal ratio of 90% or more (almost completely withered))

Question: And the “J: Alopecurus myosuroides, herbicidal effect (criteria 0-5)” value ([10]; 192 g/ha)?
Answer: 5 (Herbicidal ratio of 90% or more (almost completely withered))

Question: And the “b: directly sowed rice plant, effect on crop (criteria 0-5)” value ([11]; 192 g/ha)?
Answer: 5 (Herbicidal ratio of 90% or more (almost completely withered))

Question: What about the “F: Digitaria ciliaris, herbicidal effect grade” value ([12]; 192 g/ha) of the same molecule?
Answer: 5 (Herbicidal ratio of 90% or more (almost completely withered))

Question: And the “N: Amaranthus retroflexus, herbicidal effect (criteria 0-5)” value ([13]; 192 g/ha)?
Answer: 0 (Herbicidal ratio of 5% or lower (almost no effect))

Question: What about the “R: Veronica persica, herbicidal effect grade” value ([14]; 192 g/ha) of the same molecule?
Answer: 0 (Herbicidal ratio of 5% or lower (almost no effect))

Question: And the “I: Avena fatua, herbicidal effect grade” value ([15]; 192 g/ha)?
Answer: 4 (Herbicidal ratio of 70% or higher and lower than 90%)

Question: And the “Herbicidal effect grade, C: Monochoria vaginalis” value [16, 23]?
Answer: 0 (Herbicidal ratio of 5% or lower (almost no effect))

Question: And the “P: Stellaria media, herbicidal effect (criteria 0-5)” value ([17]; 192 g/ha)?
Answer: 3 (Herbicidal ratio of 40% or higher and lower than 70%)

Question: And the “b: directly sowed rice plant, effect grade on crop” value ([18]; 192 g/ha)?
Answer: 5 (Herbicidal ratio of 90% or more (almost completely withered))

Question: And the “e: wheat, effect grade on crop” value ([19]; 192 g/ha)?
Answer: 4 (Herbicidal ratio of 70% or higher and lower than 90%)

Question: What does the source list for `CC(CC1CC(O)=C(c2c(C)cc(C)cc2C)C1=O)=NOCc1ccc(C(F)(F)F)cc1` (stereo not drawn) [1-138]?
Answer: J: Alopecurus myosuroides, herbicidal effect grade ([1]; 320 g/ha): 5 (Herbicidal ratio of 90% or more (almost completely withered)); O: Chenopodium album, herbicidal effect (criteria 0-5) [2]: 0 (Herbicidal ratio of 5% or lower (almost no effect)); Herbicidal effect grade, B: Scirpus juncoides [3, 21]: 4 (Herbicidal ratio of 70% or higher and lower than 90%); P: Stellaria media, herbicidal effect grade ([4]; 320 g/ha): 0 (Herbicidal ratio of 5% or lower (almost no effect)); Herbicidal effect grade, A: Echinochloa oryzacola Vasing. [5, 21]: 3 (Herbicidal ratio of 40% or higher and lower than 70%); K: Lolium multiflorum Lam., herbicidal effect grade ([6]; 320 g/ha): 5 (Herbicidal ratio of 90% or more (almost completely withered)); herbicidal effect on H (Echinochloa crus-galli var. crus-galli), grade 0-5 [7, 21]: 3 (Herbicidal ratio of 40% or higher and lower than 70%); G: Setaria viridis, herbicidal effect grade ([20]; 320 g/ha): 4 (Herbicidal ratio of 70% or higher and lower than 90%); herbicidal effect on D (Leptochloa chinensis), grade 0-5 [8, 21]: 2 (Herbicidal ratio of 20% or higher and lower than 40%); H: Echinochloa crus-galli var. crus-galli, herbicidal effect (criteria 0-5) ([9]; 320 g/ha): 5 (Herbicidal ratio of 90% or more (almost completely withered)); J: Alopecurus myosuroides, herbicidal effect (criteria 0-5) ([10]; 320 g/ha): 5 (Herbicidal ratio of 90% or more (almost completely withered)); b: directly sowed rice plant, effect on crop (criteria 0-5) ([11]; 320 g/ha): 5 (Herbicidal ratio of 90% or more (almost completely withered)); N: Amaranthus retroflexus, herbicidal effect (criteria 0-5) ([13]; 320 g/ha): 0 (Herbicidal ratio of 5% or lower (almost no effect)); R: Veronica persica, herbicidal effect grade ([14]; 320 g/ha): 0 (Herbicidal ratio of 5% or lower (almost no effect)); I: Avena fatua, herbicidal effect grade ([15]; 320 g/ha): 0 (Herbicidal ratio of 5% or lower (almost no effect)); Herbicidal effect grade, C: Monochoria vaginalis [16, 21]: 2 (Herbicidal ratio of 20% or higher and lower than 40%); P: Stellaria media, herbicidal effect (criteria 0-5) ([17]; 320 g/ha): 1 (Herbicidal ratio of 5% or higher and lower than 20%); b: directly sowed rice plant, effect grade on crop ([18]; 320 g/ha): 5 (Herbicidal ratio of 90% or more (almost completely withered)); e: wheat, effect grade on crop ([19]; 320 g/ha): 0 (Herbicidal ratio of 5% or lower (almost no effect))
